Consider 19 molecules from US20100222349A1, “QUINOLINE DERIVATIVES USED TO TREAT INFLAMMATORY AND ALLERGIC DISEASES” (Glaxo Group Limited, priority 2007, published 2010).

In test [1] the target is T1, human H1 receptor (Homo sapiens, UniProt P35367).
T1 construct: expressed in transfected cells
Briefly: Histamine H1 functional antagonist assay: determination of functional pKi values (FLIPR). Conditions: CHO cells expressing human H1 receptor, histamine at EC80, read-out: average pKi (pKb) at H1 (converted). The class given is cell-based. In outline:
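Functional affinities come from concentration-effect curves of inhibited histamine (EC80) calcium responses read by FLIPR. Compound sat 30 min at 37° C on Fluo-4-loaded CHO cells stably expressing human H1 receptor, in probenecid-containing Tyrodes buffer, pH 7.40.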

In the next test the target is T2, histamine H3 receptor (Homo sapiens, UniProt Q9Y5N1).
T2 construct: expressed in transfected cells; host or cells: CHO K1 cells with pSwitch/pGeneH3 (GeneSwitch, mifepristone-induced), clone 3H3; membrane preparation
T2 sequence (Q9Y5N1 whole entry, species assumed): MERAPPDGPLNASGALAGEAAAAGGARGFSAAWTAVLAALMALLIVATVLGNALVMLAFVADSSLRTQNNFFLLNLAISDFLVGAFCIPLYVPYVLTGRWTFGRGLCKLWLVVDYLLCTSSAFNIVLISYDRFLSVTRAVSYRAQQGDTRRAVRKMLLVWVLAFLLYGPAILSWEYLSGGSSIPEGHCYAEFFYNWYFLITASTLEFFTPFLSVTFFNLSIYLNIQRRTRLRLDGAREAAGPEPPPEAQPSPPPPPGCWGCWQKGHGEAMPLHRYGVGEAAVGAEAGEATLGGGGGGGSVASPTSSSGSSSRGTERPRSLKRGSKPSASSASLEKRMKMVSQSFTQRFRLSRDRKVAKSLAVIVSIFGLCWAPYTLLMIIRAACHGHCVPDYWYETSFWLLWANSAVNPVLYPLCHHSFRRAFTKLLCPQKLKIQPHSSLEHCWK
As to the kind of experiment: Histamine H3 functional antagonist assay (GTPγS, membranes). The class given is biochemical. Conditions: CHO K1 membranes, [35S]-GTPγS, histamine at EC80; read-out: average pKi (pKb) at H3 (converted). The essentials:
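Membranes came from CHO K1 cells with mifepristone-inducible (10 nM, 18 h) human H3 receptor expression, clone 3H3. Test compounds in DMSO were combined with WGA polystyrene LeadSeeker SPA beads, membranes and GDP.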

Test [2] deals with T1, human H1 receptor. Briefly: Histamine H1 functional antagonist assay: antagonist duration. Conditions: at one or more time points, after washout. The format is cell-based. As to the method:
(§1) The human H1 receptor is cloned using known procedures described in the literature [Biochem. Biophys. Res. Commun., 201(2):894 (1994)]. Chinese hamster ovary (CHO) cells stably expressing the human H1 receptor are generated according to known procedures described in the literature [Br. J. Pharmacol., 117(6):1071 (1996)].
To determine the antagonist duration, cells are cultured overnight in non-coated black-walled clear bottom 96-well tissue culture plates, are washed with PBS and are incubated with a concentration of antagonist chosen to give an approximate DR in the range 30-300. Following the 30 min antagonist incubation period, the cells are washed two or three times with 200 μl of PBS and then 100 μl Tyrodes buffer is added to each well to initiate antagonist dissociation. Following incubation for predetermined times, typically 30-270 min at 37° C., the cells are then washed again with 200 μl PBS and are incubated with 100 μl Tyrodes buffer containing Brilliant Black, probenecid and Fluo-4 for 45 min at 37° C., as described above. After this period, the cells are challenged with histamine in the FLIPR™ as described above. The dose ratio at each time point is used to determine the fractional H1 receptor occupancy by the following equation: fractional receptor occupancy=(DR-1)/DR. The decrease in receptor occupancy over time approximates to a straight line and is analysed by linear regression. The slope of this straight line fit is used as an index of the dissociation rate of the antagonist. The dose ratios for antagonist treated cells and for antagonist treated and washed cells at each time point are used to calculate a relative dose ratio (rel DR) which is also used as an index of antagonist duration. Antagonists with long duration of action produce rel DR values close to 1, and antagonists with short duration of action produce rel DR values that approaches the dose ratio value obtained for antagonist treatment alone.

The target of test [3] is T1, human H1 receptor. As to the kind of experiment: Histamine H1 functional antagonist assay: determination of antagonist pA2 (FLIPR). The class given is cell-based. Conditions: histamine H1 receptor expressing CHO cells, histamine concentration response curves. As to the method: as §1
The histamine H1 receptor expressing CHO cells are seeded into non-coated black-walled clear bottom 96-well tissue culture plates as described above.
Following overnight culture, growth medium is removed from each well, washed with 200 μl PBS and is replaced with 50 μl loading dye (250 μM Brilliant Black, 1 μM Fluo-4 diluted in Tyrodes buffer+probenecid (145 mM NaCl, 2.5 mM KCl, 10 mM HEPES, 10 mM D-glucose, 1.2 mM MgCl2, 1.5 mM CaCl2, 2.5 mM probenecid, pH adjusted to 7.40 with NaOH 1.0 M)). Cells are incubated for 45 min at 37° C. The loading buffer is removed and the cells are washed as above, and 90 μl of Tyrodes buffer+probenecid is added to each well. 10 μl of test compound, diluted to the required concentration in Tyrodes buffer+probenecid (or 10 μl Tyrodes buffer+probenecid as a control) is added to each well and the plate is incubated for 30 min at 37° C., 5% CO2.
The plates are then placed into a FLIPR™ (Molecular Devices, UK) to monitor cell fluorescence (λex=488 nm, λEM=540 nm) in the manner described in Sullivan et al., (In: Lambert DG (ed.), Calcium Signaling Protocols, New Jersey: Humana Press, 1999, 125-136) before and after the addition of 50 μl histamine over a concentration range of 1 mM-0.1 nM. The resultant concentration response curves are analysed by non-linear regression using a standard four parameter logistic equation to determine the histamine EC50, the concentration of histamine required to produce a response of 50% of the maximum response to histamine. The antagonist pA2 is calculated using the following standard equation: pA2=[…] where DR=dose ratio, defined as EC50antagonist-treated/EC50control and [B]=concentration of antagonist.

T1 sequence (P35367 whole entry): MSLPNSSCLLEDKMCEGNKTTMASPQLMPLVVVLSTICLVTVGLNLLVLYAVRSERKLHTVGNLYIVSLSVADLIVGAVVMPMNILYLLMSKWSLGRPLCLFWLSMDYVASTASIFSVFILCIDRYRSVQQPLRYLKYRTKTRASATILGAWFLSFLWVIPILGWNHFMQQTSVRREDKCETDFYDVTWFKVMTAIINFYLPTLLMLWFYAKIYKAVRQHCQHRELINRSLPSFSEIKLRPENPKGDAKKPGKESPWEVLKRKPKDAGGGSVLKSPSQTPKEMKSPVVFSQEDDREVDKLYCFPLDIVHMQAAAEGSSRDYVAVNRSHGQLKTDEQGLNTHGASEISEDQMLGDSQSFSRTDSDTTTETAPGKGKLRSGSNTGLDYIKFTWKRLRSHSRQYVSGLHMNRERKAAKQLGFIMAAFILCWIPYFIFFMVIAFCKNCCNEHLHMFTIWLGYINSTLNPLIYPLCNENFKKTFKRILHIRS

For `CCCCc1cc(OC2CCN(C[C@H]3CC[C@H](C(=O)N(CC)CC)CC3)CC2)c2ncccc2c1` [Example 43, Trans-4-({4-[(6-butyl-8-quinolinyl)oxy]-1-piperidinyl}methyl)-N,N-diethylcyclohexane carboxamide], the Ki on human H1 receptor [1] is under 0.01 µM; at histamine H3 receptor, over 0.316 µM. The “duration of action compared with azelastine” value at human H1 receptor [2] was “longer duration of action than azelastine”.

With `CCCCc1cc(OC2CCN(C[C@H]3CC[C@H](C(=O)N4CCCCC4)CC3)CC2)c2ncccc2c1` [Example 44, 6-Butyl-8-[(1-{[trans-4-(1-piperidinylcarbonyl)cyclohexyl]methyl}-4-piperidinyl)oxy]quinoline], the results for the Ki at human H1 receptor [1] and at histamine H3 receptor were under 0.01 µM and over 0.316 µM, respectively. Further, the “duration of action compared with azelastine” value on human H1 receptor [2] was “longer duration of action than azelastine”.

In the case of `CCCCc1cc(OC2CCN(CCNC(=O)C(C)(C)C)CC2)c2ncccc2c1` [Example 72, N-(2-{4-[(6-butyl-8-quinolinyl)oxy]-1-piperidinyl}ethyl)-2,2-dimethyl propanamide], the Ki on human H1 receptor [1] was under 0.01 µM; on histamine H3 receptor it was over 0.316 µM. Moreover, the “duration of action compared with azelastine” value at human H1 receptor [2] is listed as “longer duration of action than azelastine”.

Consider `CCCCc1cc(O[C@H]2CCN(CCC(=O)N(CC)CC)C2)c2ncccc2c1` [Example 40, 3-{(3S)-3-[(6-butyl-8-quinolinyl)oxy]-1-pyrrolidinyl}-N,N-diethylpropanamide], for which the Ki is about 1 µM on human H1 receptor [1] and over 0.316 µM on histamine H3 receptor. At human H1 receptor [3], this molecule gave an antagonist equilibrium constant (Kb) of under 0.1 µM.

As to `CCCCc1cc(O[C@H]2CCN(CCC(=O)N3CCCCC3)C2)c2ncccc2c1` [Example 38, 6-butyl-8-({(3S)-1-[3-oxo-3-(1-piperidinyl)propyl]-3-pyrrolidinyl}oxy)quinoline], the Ki is about 1 µM on human H1 receptor [1] and about 0.1 µM on histamine H3 receptor. Moreover, the Kb at human H1 receptor [3] was under 0.1 µM.

For the molecule `CCCCc1cc(O[C@H]2CCN(CCCC(=O)NC(C)(C)C)C2)c2ncccc2c1` [Example 41, 4-{(3S)-3-[(6-butyl-8-quinolinyl)oxy]-1-pyrrolidinyl}-N-(1,1-dimethylethyl) butanamide], the Ki at human H1 receptor [1] was under 0.1 µM; on histamine H3 receptor, over 0.316 µM. On human H1 receptor [3], this molecule gave a Kb of under 0.1 µM.

With `CCCCc1cc(OC2CCN(CCCCNC(=O)CCOC)CC2)c2ncccc2c1` [Example 85, N-(4-{4-[(6-butyl-8-quinolinyl)oxy]-1-piperidinyl}butyl)-3-(methyloxy) propanamide], the Ki at human H1 receptor [1] was under 0.01 µM; at histamine H3 receptor it was over 0.316 µM.

With `CCCCc1cc(OC2CCN(CC3CCN(C(C)=O)CC3)CC2)c2ncccc2c1` [Example 1, 8-({1-[(1-Acetyl-4-piperidinyl)methyl]-4-piperidinyl}oxy)-6-butylquinoline], the Ki on human H1 receptor [1] was under 0.1 µM; on histamine H3 receptor, over 0.316 µM.

As to `CCCCc1cc(OC2CCN(CCCCCNC(=O)C(C)(C)C)CC2)c2ncccc2c1` [Example 76, N-(5-{4-[(6-butyl-8-quinolinyl)oxy]-1-piperidinyl}pentyl)-2,2-dimethyl propanamide], the Ki on human H1 receptor [1] was under 0.01 µM; on histamine H3 receptor it was over 0.316 µM.

Consider `CCCCc1cc(OC2CCN(CC(=O)NCCC)CC2)c2ncccc2c1` [Example 10, 2-{4-[(6-butyl-8-quinolinyl)oxy]-1-piperidinyl}-N-propylacetamide], for which the Ki at human H1 receptor [1] was over 1 µM; at histamine H3 receptor, over 0.316 µM.

For the molecule `CCCCc1cc(O[C@@H]2CCN(CCCC(=O)N3CCCCC3)C2)c2ncccc2c1` [Example 34, 6-butyl-8-({(3R)-1-[4-oxo-4-(1-piperidinyl)butyl]-3-pyrrolidinyl}oxy)quinoline], the Ki is under 0.01 µM at human H1 receptor [1] and over 0.316 µM at histamine H3 receptor.

In the case of `CCCCCCc1cc(OC2CCN(C[C@H]3CC[C@H](C(=O)NC(C)C)CC3)CC2)c2ncccc2c1` [Example 56, trans-4-({4-[(6-hexyl-8-quinolinyl)oxy]-1-piperidinyl}methyl)-N-(1-methylethyl) cyclohexane carboxamide], the Ki was under 0.01 µM at human H1 receptor [1] and over 0.316 µM at histamine H3 receptor.

As to `CCCCc1cc(OC2CCN(CCCCC(=O)N(CC)CC)CC2)c2ncccc2c1` [Example 27, 5-{4-[(6-butyl-8-quinolinyl)oxy]-1-piperidinyl}-N,N-diethylpentanamide], the Ki on human H1 receptor [1] is under 0.01 µM; at histamine H3 receptor, over 3.16 µM.

As to `CCCCc1cc(OC2CCN(CCNC(=O)CC)CC2)c2ncccc2c1` [Example 73, N-(2-{4-[(6-butyl-8-quinolinyl)oxy]-1-piperidinyl}ethyl) propanamide], the Ki on human H1 receptor [1] is under 0.01 µM; at histamine H3 receptor it was over 0.316 µM.

`CCCCc1cc(OC2CCN(CCCC(=O)NCC)CC2)c2ncccc2c1` [Example 20, 4-{4-[(6-butyl-8-quinolinyl)oxy]-1-piperidinyl}-N-ethylbutanamide]: the figures for the Ki on human H1 receptor [1] and at histamine H3 receptor were under 0.01 µM and over 3.16 µM, respectively.

In the case of `CCCCCCc1cc(OC2CCN(C[C@H]3CC[C@H](C(=O)Nc4ccc(C)cc4)CC3)CC2)c2ncccc2c1` [Example 48, trans-4-({4-[(6-hexyl-8-quinolinyl)oxy]-1-piperidinyl}methyl)-N-(4-methylphenyl) cyclohexane carboxamide], the Ki at human H1 receptor [1] was under 0.1 µM; on histamine H3 receptor it was over 0.316 µM.

On to `CCCCc1cc(OC2CCN(CCCCNC(=O)CCCOC)CC2)c2ncccc2c1` [Example 84, N-(4-{4-[(6-butyl-8-quinolinyl)oxy]-1-piperidinyl}butyl)-4-(methyloxy) butanamide], for which the results for the Ki on human H1 receptor [1] and on histamine H3 receptor were under 0.01 µM and over 0.316 µM, respectively.

In the case of `CCCCc1cc(OC2CCN(CCCCC(=O)NCCC)CC2)c2ncccc2c1` [Example 28, 5-{4-[(6-butyl-8-quinolinyl)oxy]-1-piperidinyl}-N-propylpentanamide], the Ki at human H1 receptor [1] is under 0.01 µM; at histamine H3 receptor, over 3.16 µM.

Take `CCCCc1cc(OC2CCN(CCCCC(=O)NCCCOC)CC2)c2ncccc2c1` [Example 26, 5-{4-[(6-butyl-8-quinolinyl)oxy]-1-piperidinyl}-N-[3-(methyloxy)propyl]pent-anamide]: the Ki at human H1 receptor [1] was under 0.1 µM; at histamine H3 receptor it was over 3.16 µM.

By Kb is commonly meant the equilibrium dissociation constant of an antagonist, usually derived from a functional assay. Higher therefore signals lower antagonist affinity.
